How the values were obtained:
[1] = In vitro experiments: antioxidant activity
[2] = In vitro experiments: blood fibrillation
[3] = Storage (shelf life) test of salmon oil stabilized with antioxidant, degree of oxidation in fatty acids; set-up: degree of oxidation in fatty acids: unit not given here; details: for degree of oxidation in fatty acids: fullerene C60 0.001%, rosemary 0.1%
Protocol: FIG. 2. Shelf life tests for salmon oil stabilized with fullerene or rosemary. The results are given as the change in the oxidation level of fatty acids in the oil. The antioxidants rosemary and fullerene were present at 0.1% and 0.001% by weight, respectively.
Research on storage of salmon oil was carried out at temperatures of 25° C. and 5° C. during the time period from Jun. 11, 2003 to Nov. 10, 2004 (17 months). The quality of the rosemary and fullerene C60 as antioxidants in salmon oil was studied in parallel during the entire duration of the experiment.
The concentration of the two chosen antioxidants used in the experiment were obtained by an addition of 0.1% rosemary (the same concentration used in the products UNIC Omega-3 and AniMega) and 0.001% fullerene C60.
Standard methods of defining the degree of oxidation in fatty acids were used during selected time periods during the storage test. FIG. 2. presents data from a storage temperature of 5° C.

[4] = In vivo experiments: toxicity, immunogenicity, allergenicity; details: dosages up to 25 mg/kg (0.0025% by weight) in aqueous solution
cellular membranes = assay: In vitro experiments: cellular respiration and cellular membranes; assay type: cell-based
[5] = Organoleptic testing (taste and smell) of stabilized salmon oil; details: salmon oil with the additive, organoleptic test
Protocol: With basis in salmon oil as a nutritional supplement, organoleptic characteristics (determination of the quality of the oil by taste and smell) are also of importance. Standardized methods for organoleptic testing were utilized: one drop of salmon oil was placed on the arm and applied in a thin layer by means of a piece of glass. After one minute the quality of the oil could be determined by taste and smell. Five different individuals were tested, once per week, to obtain independent results. […] Both smell and taste was satisfactory at this point in time, and better for fullerene, witch kept well for 600 days, than for rosemary, witch only kept for 300 days.

[6] = In vitro experiments: cytotoxicity and hepatotoxicity; assay type: cell-based; details: concentrations up to 100 mM in water
[7] = concentrations up to 100 mM in water

Q: With `c12c3c4c5c1c1c6c7c2c2c8c3c3c9c4c4c%10c5c5c1c1c6c6c%11c7c2c2c7c8c3c3c8c9c4c4c9c%10c5c5c1c1c6c6c%11c2c2c7c3c3c8c4c4c9c5c1c1c6c2c3c41` [fullerene C60] as the compound, how does the “antioxidant activity compared with ionol, vitamin E and beta-carotene” value [1] read?
A: greater than ionol, vitamin E, and beta-carotene

Q: What about the “effect on blood fibrillation” value [2] of the same compound?
A: no bearing on blood fibrillation

Q: What about the “keeping time of stabilized fish oil” value ([3]; fish oil stabilized with the antioxidant) of the same compound?
A: 600 days

Q: What about the “degree of oxidation in fatty acids” value ([3]; salmon oil, 5 C., day 0 (11.06)) of the same compound?
A: 0.00036

Q: And the “degree of oxidation in fatty acids” value ([3]; salmon oil, 5 C., day 14 (25.06))?
A: 0.00083

Q: What about the “degree of oxidation in fatty acids” value ([3]; salmon oil, 5 C., day 81 (8.09)) of the same compound?
A: 0.0010

Q: And the “degree of oxidation in fatty acids” value ([3]; salmon oil, 5 C., day 95 (22.09))?
A: 0.00095

Q: What about the “degree of oxidation in fatty acids” value ([3]; salmon oil, 5 C., day 109 (6.10)) of the same compound?
A: 0.0014

Q: What about the “degree of oxidation in fatty acids” value ([3]; salmon oil, 5 C., day 123 (20.10)) of the same compound?
A: 0.0012

Q: And the “degree of oxidation in fatty acids” value ([3]; salmon oil, 5 C., day 185 (21.12))?
A: 0.0023

Q: What about the “degree of oxidation in fatty acids” value ([3]; salmon oil, 5 C., day 200 (05.01)) of the same compound?
A: 0.0027

Q: What about the “degree of oxidation in fatty acids” value ([3]; salmon oil, 5 C., day 214 (19.01)) of the same compound?
A: 0.0028

Q: What about the “degree of oxidation in fatty acids” value ([3]; salmon oil, 5 C., day 228 (02.02)) of the same compound?
A: 0.0028

Q: And the “degree of oxidation in fatty acids” value ([3]; salmon oil, 5 C., day 242 (16.02))?
A: 0.0030

Q: What about the “degree of oxidation in fatty acids” value ([3]; salmon oil, 5 C., day 256 (2.03)) of the same compound?
A: 0.0030

Q: And the “degree of oxidation in fatty acids” value ([3]; salmon oil, 5 C., day 270 (16.03))?
A: 0.0031

Q: What about the “degree of oxidation in fatty acids” value ([3]; salmon oil, 5 C., day 284 (30.03)) of the same compound?
A: 0.0033

Q: What about the “degree of oxidation in fatty acids” value ([3]; salmon oil, 5 C., day 298 (13.04)) of the same compound?
A: 0.0037

Q: And the “degree of oxidation in fatty acids” value ([3]; salmon oil, 5 C., day 312 (27.04))?
A: 0.0039

Q: And the “degree of oxidation in fatty acids” value ([3]; salmon oil, 5 C., day 326 (11.05))?
A: 0.0040

Q: What about the “degree of oxidation in fatty acids” value ([3]; salmon oil, 5 C., day 340 (25.05)) of the same compound?
A: 0.0043

Q: What about the “degree of oxidation in fatty acids” value ([3]; salmon oil, 5 C., day 354 (8.06)) of the same compound?
A: 0.0046

Q: And the “degree of oxidation in fatty acids” value ([3]; salmon oil, 5 C., day 368 (22.06))?
A: 0.0048

Q: And the “degree of oxidation in fatty acids” value ([3]; salmon oil, 5 C., day 372 (06.07))?
A: 0.0050

Q: What about the “degree of oxidation in fatty acids” value ([3]; salmon oil, 5 C., day 386 (20.07)) of the same compound?
A: 0.0052

Q: And the “degree of oxidation in fatty acids” value ([3]; salmon oil, 5 C., day 414 (15.08))?
A: 0.0054

Q: And the “degree of oxidation in fatty acids” value ([3]; salmon oil, 5 C., day 428 (29.08))?
A: 0.0055

Q: What about the “degree of oxidation in fatty acids” value ([3]; salmon oil, 5 C., day 442 (12.09)) of the same compound?
A: 0.0058

Q: And the “degree of oxidation in fatty acids” value ([3]; salmon oil, 5 C., day 456 (26.09))?
A: 0.0061

Q: What about the “degree of oxidation in fatty acids” value ([3]; salmon oil, 5 C., day 470 (10.10)) of the same compound?
A: 0.0065

Q: What about the “degree of oxidation in fatty acids” value ([3]; salmon oil, 5 C., day 484 (24.10)) of the same compound?
A: 0.0066

Q: What about the “degree of oxidation in fatty acids” value ([3]; salmon oil, 25 C., day 0 (11.06)) of the same compound?
A: 0.00036

Q: And the “degree of oxidation in fatty acids” value ([3]; salmon oil, 25 C., day 14 (25.06))?
A: 0.00076

Q: And the “degree of oxidation in fatty acids” value ([3]; salmon oil, 25 C., day 81 (8.09))?
A: 0.0020

Q: What about the “degree of oxidation in fatty acids” value ([3]; salmon oil, 25 C., day 95 (22.09)) of the same compound?
A: 0.0031

Q: And the “degree of oxidation in fatty acids” value ([3]; salmon oil, 25 C., day 109 (6.10))?
A: 0.0090

Q: And the “degree of oxidation in fatty acids” value ([3]; salmon oil, 25 C., day 123 (20.10))?
A: 0.0015

Q: And the “degree of oxidation in fatty acids” value ([3]; salmon oil, 25 C., day 185 (21.12))?
A: 0.012

Q: What about the “degree of oxidation in fatty acids” value ([3]; salmon oil, 25 C., day 200 (05.01)) of the same compound?
A: 0.015

Q: And the “degree of oxidation in fatty acids” value ([3]; salmon oil, 25 C., day 214 (19.01))?
A: 0.022

Q: And the “degree of oxidation in fatty acids” value ([3]; salmon oil, 25 C., day 228 (02.02))?
A: 0.034

Q: What about the “degree of oxidation in fatty acids” value ([3]; salmon oil, 25 C., day 242 (16.02)) of the same compound?
A: 0.037

Q: And the “degree of oxidation in fatty acids” value ([3]; salmon oil, 25 C., day 256 (2.03))?
A: 0.038

Q: And the “degree of oxidation in fatty acids” value ([3]; salmon oil, 25 C., day 270 (16.03))?
A: 0.040

Q: And the “degree of oxidation in fatty acids” value ([3]; salmon oil, 25 C., day 284 (30.03))?
A: 0.041

Q: What about the “degree of oxidation in fatty acids” value ([3]; salmon oil, 25 C., day 298 (13.04)) of the same compound?
A: 0.044

Q: What about the “degree of oxidation in fatty acids” value ([3]; salmon oil, 25 C., day 312 (27.04)) of the same compound?
A: 0.047

Q: What about the “degree of oxidation in fatty acids” value ([3]; salmon oil, 25 C., day 326 (11.05)) of the same compound?
A: 0.049

Q: And the “degree of oxidation in fatty acids” value ([3]; salmon oil, 25 C., day 340 (25.05))?
A: 0.054

Q: What about the “degree of oxidation in fatty acids” value ([3]; salmon oil, 25 C., day 354 (8.06)) of the same compound?
A: 0.059

Q: What about the “degree of oxidation in fatty acids” value ([3]; salmon oil, 25 C., day 368 (22.06)) of the same compound?
A: 0.063

Q: And the “degree of oxidation in fatty acids” value ([3]; salmon oil, 25 C., day 372 (06.07))?
A: 0.066

Q: What about the “degree of oxidation in fatty acids” value ([3]; salmon oil, 25 C., day 386 (20.07)) of the same compound?
A: 0.068

Q: What about the “degree of oxidation in fatty acids” value ([3]; salmon oil, 25 C., day 414 (15.08)) of the same compound?
A: 0.070

Q: And the “degree of oxidation in fatty acids” value ([3]; salmon oil, 25 C., day 428 (29.08))?
A: 0.072

Q: What about the “degree of oxidation in fatty acids” value ([3]; salmon oil, 25 C., day 442 (12.09)) of the same compound?
A: 0.080

Q: And the “degree of oxidation in fatty acids” value ([3]; salmon oil, 25 C., day 456 (26.09))?
A: 0.085

Q: And the “degree of oxidation in fatty acids” value ([3]; salmon oil, 25 C., day 470 (10.10))?
A: 0.088

Q: What about the “degree of oxidation in fatty acids” value ([3]; salmon oil, 25 C., day 484 (24.10)) of the same compound?
A: 0.089

Q: And the “effectiveness as additive (antioxidant) compared with rosemary” value ([3]; salmon oil, temperature of 5 C)?
A: more effective additive than rosemary

Q: What about the allergenicity in vivo [4] of the same compound?
A: not toxic, immunogenic, or an allergen

Q: And the immunogenicity in vivo [4]?
A: not toxic, immunogenic

Q: And the toxicity in vivo [4]?
A: not toxic

Q: And the “inhibition of cellular respiration” value (cellular membranes; [7])?
A: does not inhibit cellular respiration

Q: What about the “inhibition of membrane catalytic activity” value (cellular membranes; [7]) of the same compound?
A: does not inhibit cellular respiration or inhibition of membrane catalytic activity

Q: And the “stabilization of cellular membranes” value (cellular membranes; stability during unfavourable conditions)?
A: stabilizes cellular membranes

Q: And the “time the oil kept (smell and taste)” value [5]?
A: 600 days

Q: And the cytotoxicity [6]?
A: not cytotoxic

Q: And the hepatotoxicity [6]?
A: not cytotoxic or hepatoxic
